Assay results reported in patent US20230099822A1, “MR1 LIGANDS AND PHARMACEUTICAL COMPOSITIONS FOR IMMUNOMODULATION” (UNIVERSITÄT BASEL, priority 2020, published 2023).

Columns and labels:
[1] = molecular target: T1, MR1 surface expression on THP-1 MR1 cells (Homo sapiens, UniProt Q95460); experiment: Cell surface MR1 modulation on APCs (flow cytometry, anti-MR1 mAb 26.5); type: cell-based; conditions: for cell surface MR1 upregulation on APCs (in words): pulsed APC / THP1-MR1 cells
T1 construct: expressed in transfected cells; host or cells: THP-1 (ATCC TIB-202) stably expressing MR1 (THP1-MR1)
T1 sequence (Q95460 23-341): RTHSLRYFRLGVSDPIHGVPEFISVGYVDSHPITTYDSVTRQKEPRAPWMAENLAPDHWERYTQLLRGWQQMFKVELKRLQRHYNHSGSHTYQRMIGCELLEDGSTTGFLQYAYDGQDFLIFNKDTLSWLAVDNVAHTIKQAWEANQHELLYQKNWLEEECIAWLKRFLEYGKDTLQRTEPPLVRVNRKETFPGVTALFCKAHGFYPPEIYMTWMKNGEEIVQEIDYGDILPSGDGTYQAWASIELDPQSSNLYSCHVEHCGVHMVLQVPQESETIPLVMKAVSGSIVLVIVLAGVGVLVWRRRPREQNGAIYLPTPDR
T1 sequence (P61769 21-119 partner): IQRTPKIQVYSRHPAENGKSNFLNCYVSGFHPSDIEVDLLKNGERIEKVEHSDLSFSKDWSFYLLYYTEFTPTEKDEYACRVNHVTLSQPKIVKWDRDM
Experimental: […] […] For each condition, net MFI was calculated subtracting isotype MFI from anti-MR1 MFI and fold change of cells treated with synthetic molecules over cells treated with vehicle was calculated.

[2] = system: MR1T cell clones; experiment: MR1T cell activation assay with THP-1 cells incubated with compounds (cytokine ELISA); type: cell-based, human; conditions: for number of MR1T clones significantly stimulated: fourteen randomly selected MR1T clones, THP-1 cells, IFN-γ (FIG. 12B); for activation of MR1T clone MCA3C3 (IFN-γ): THP-1 cells pre-incubated with 250 μM of molecule (FIG. 8G, right); for activation of MR1T clone DGB129 (IFN-γ): THP-1 cells pre-incubated with 250 μM of molecule (FIG. 8G, middle)
Experimental: MR1T cells (5×10^4/well unless otherwise indicated) were co-cultured with the indicated APCs (10^5 cells per well unless otherwise indicated) for 18 h in 120 μL volume in triplicate.
When nucleobases, nucleosides or nucleotides (all 250 μM) and synthetic compounds M3ADE, OPdA, M1G or OPdC were used to stimulate T cells, the THP-1 cells (10^5/well) were cultured 2 h with the indicated molecules or medium only, prior to T-cell addition. When a single concentration of synthetic antigens was used, 100 μM OPdA, 100 μM OPdC and 13 μM M1G were used for all clones, while 100 μM M3ADE was used for all clones except DGB129, AC1A4, AC1B76 and AVA46 for which 1 μM was used.

[3] = system: MR1T cell clones; experiment: Competition assay for stimulation of MR1T cell clones; type: cell-based, human; conditions: APCs with compound 2 h (3 doses), then antigen at optimal concentration, cytokine ELISA
Experimental: As positive control for competition with antigens, Ac-6-FP was used (100 μM). Supernatants were collected after 24 h for cytokine analysis measured by ELISA.

[4] = THP-1 MR1 cells, 3 h at 37° C., 3 doses each

SMILES: O=C/C=C/Nc1ncnc2c1ncn2[C@H]1C[C@H](O)[C@@H](CO)O1 (stereo in doubt) [Cmpd 12, N6-(3-oxo-1-propenyl)-2′-deoxyadenosine]
- MRI upregulation [1, 4]: YES
- Reactive T cells isolated [2]: YES

SMILES: O=c1[nH]cc([C@@H]2O[C@H](CO)C(O)C2O)c(=O)[nH]1 (stereo in doubt) [Cmpd 36, 5-(3,4-dihydroxy-5-(hydroxymethyl)tetrahydrofuran-2-yl)pyrimidine-2,4(1H,3H)-dione]
- MRI upregulation [1, 4]: YES
- Competition [3]: YES

SMILES: O=C/C=C/Nc1ccn([C@H]2C[C@H](O)[C@@H](CO)O2)c(=O)n1 (stereo in doubt) [Cmpd 38, N4-(3-oxo-1-propenyl)-2′-deoxycytidine]
- activation of MR1T clone TC5A87 by adduct [2]: activated
- stimulation of MR1T clone QY1A16 by adduct [2]: stimulated
- number of MR1T clones significantly stimulated [2]: three

SMILES: Nc1ncnc2c1ncn2[C@@H]1O[C@H](COP(=O)(O)OP(=O)(O)O)[C@@H](O)[C@H]1O [ADP, reference compound]
- activation of MR1T clone MCA3C3 (IFN-γ) [2]: activated

SMILES: Cn1cnc2c(ncn2[C@@H]2O[C@H](CO)[C@@H](O)[C@H]2O)c1=N [Cmpd 1, 1-methyladenosine]
- MRI upregulation [1, 4]: YES
- Competition [3]: YES

SMILES: Cc1nc(N)c2ncn([C@@H]3O[C@H](CO)[C@@H](O)[C@H]3O)c2n1 [Cmpd 2, 2-methyladenosine]
- MRI upregulation [1, 4]: YES
- cell surface MR1 upregulation on APCs (in words) [1]: upregulation
- Competition [3]: YES

SMILES: CO[C@@H]1[C@H](O)[C@@H](CO)O[C@H]1n1cnc2c(N)ncnc21 [Cmpd 3, 2′-O-methyladenosine]
- MRI upregulation [1, 4]: YES
- Reactive T cells isolated [2]: YES

SMILES: CN(C)c1ncnc2c1ncn2[C@@H]1O[C@H](CO)[C@@H](O)[C@H]1O [Cmpd 4, N6,N6-dimethyladenosine]
- MRI upregulation [1, 4]: YES
- Reactive T cells isolated [2]: YES
- compound-specific MR1T cell activation (IFN-γ) ([2]; clones DGB129, MCA2E7 and TC5A87, THP-1 cells, overnight (FIG. 3)): activation

SMILES: C/C(=C\CNc1ncnc2c1ncn2[C@@H]1O[C@H](CO)C(O)C1O)CO (stereo partly drawn) [Cmpd 7, N6-(cis-hydroxyisopent-2-enyl) adenosine]
- Competition [3]: YES

SMILES: CSc1nc(NC/C=C(\C)CO)c2ncn([C@@H]3O[C@H](CO)C(O)C3O)c2n1 (stereo partly drawn) [Cmpd 8, 2-methylthio-N6-(cis-hydroxyisopent-2-enyl) adenosine]
- MRI upregulation [1, 4]: YES
- Reactive T cells isolated [2]: YES

SMILES: CSc1nc(NCC=C(C)C)c2ncn([C@@H]3O[C@H](CO)[C@@H](O)[C@H]3O)c2n1 [Cmpd 9, 2-methylthio-N6-isopent-2-enyladenosine]
- Competition [3]: YES

SMILES: O=C/C=C/Nc1ncnc2c1ncn2[C@H]1C[C@H](O)[C@@H](CO)O1 [Cmpd 12, N6-(3-oxo-1-propenyl)-2′-deoxyadenosine]
- activation of MR1T clone AC1A4 by adduct [2]: activated
- activation of MR1T clone TC5A87 by adduct [2]: activated
- stimulation of MR1T clone QY1A16 by adduct [2]: stimulated
- number of MR1T clones significantly stimulated [2]: eight

SMILES: CCCCCC(=O)Cc1cnc2c3ncn([C@H]4C[C@H](O)[C@@H](CO)O4)c3ncn12 [Cmpd 14, 1-(3-((2R,4S,5R)-4-hydroxy-5-(hydroxymethyl)tetrahydrofuran-2-yl)-3H-imidazo[2,1-i]purin-7-yl)heptan-2-one]
- MRI upregulation [1, 4]: YES

SMILES: Cn1c(N)nc2c(ncn2[C@@H]2O[C@H](CO)[C@@H](O)[C@H]2O)c1=O [Cmpd 15, 1-methylguanosine]
- Competition [3]: YES
- Reactive T cells isolated [2]: YES

SMILES: CNc1nc2c(ncn2[C@@H]2O[C@H](CO)[C@@H](O)[C@H]2O)c(=O)[nH]1 [Cmpd 16, N2-methylguanosine]
- MRI upregulation [1, 4]: YES

SMILES: C[n+]1cn([C@@H]2O[C@H](CO)[C@@H](O)[C@H]2O)c2nc(N)[nH]c(=O)c21 [Cmpd 17, 7-methylguanosine]
- Competition [3]: YES
- Reactive T cells isolated [2]: YES

SMILES: CO[C@@H]1[C@H](O)[C@@H](CO)O[C@H]1n1cnc2c(=O)[nH]c(N)nc21 [Cmpd 18, 2′-O-methylguanosine]
- MRI upregulation [1, 4]: YES
- Competition [3]: YES

SMILES: O=c1c2nc[nH]c2nc2ncccn12 [Cmpd 24, pyrimido(1,2-a)purin-10(1H)-one]
- MRI upregulation [1, 4]: YES
- Reactive T cells isolated [2]: YES
- activation of MR1T clone AC1A4 by adduct [2]: activated
- response to THP-1 cells when adduct added ([2]; M1G or M3ADE added to clones QY1A16 and QY1C3, respectively): significant decreased response
- number of MR1T clones significantly stimulated [2]: three

SMILES: CCCCCC(=O)Cc1c[nH]c2nc3c(ncn3[C@H]3C[C@H](O)[C@@H](CO)O3)c(=O)n12 [Cmpd 25, 3-((2R,5R)-4-hydroxy-5-(hydroxymethyl)tetrahydrofuran-2-yl)-7-(2-oxoheptyl)-3H-imidazo[1,2-a]purin-9(5H)-one]
- MRI upregulation [1, 4]: YES

SMILES: CO[C@@H]1[C@H](O)[C@@H](CO)O[C@H]1n1ccc(N)nc1=O [Cmpd 29, 2′-O-methylcytidine]
- MRI upregulation [1, 4]: YES
- Competition [3]: YES

SMILES: Cc1cn([C@@H]2O[C@H](CO)[C@@H](O)[C@H]2O)c(=O)[nH]c1=O [Cmpd 31, 5-methyluridine]
- MRI upregulation [1, 4]: YES
- Competition [3]: YES

SMILES: O=C/C=C/Nc1ccn([C@H]2C[C@H](O)[C@@H](CO)O2)c(=O)n1 [Cmpd 38, N4-(3-oxo-1-propenyl)-2′-deoxycytidine]
- MRI upregulation [1, 4]: YES

SMILES: CSc1ncnc2c1ncn2[C@@H]1O[C@H](CO)[C@@H](O)[C@H]1O [Cmpd 40, (2R,3S,4R,5R)-2-(hydroxymethyl)-5-(6-(methylthio)-9H-purin-9-yl)tetrahydrofuran-3,4-diol]
- MRI upregulation [1, 4]: YES
- Reactive T cells isolated [2]: YES

SMILES: Cn1c(N)nc2[nH]cnc2c1=O [Cmpd 47, 1-Methylguanine]
- MRI downmodulation [1, 4]: YES

SMILES: CNc1nc2c(ncn2[C@H]2C[C@H](O)[C@@H](CO)O2)c(=O)[nH]1 [Cmpd 48, N2-Methyl-2′-deoxyguanosine]
- MRI upregulation [1, 4]: YES

SMILES: CSC[C@H]1O[C@@H](n2cnc3c(N)ncnc32)[C@H](O)[C@@H]1O [Cmpd 52, 5′-Deoxy-5′-(methylthio)adenosine]
- Competition [3]: YES

SMILES: CNc1ncnc2c1ncn2[C@H]1C[C@H](O)[C@@H](CO)O1 [Cmpd 53, N6-Methyl-2′-deoxyadenosine]
- Reactive T cells isolated [2]: YES

SMILES: OCCNc1ncnc2c1ncn2[C@H]1C[C@H](O)[C@@H](CO)O1 [Cmpd 54, N6-(2-Hydroxyethyl)-2′-deoxyadenosine]
- Reactive T cells isolated [2]: YES

SMILES: CC(=O)C=O [MG, methylglyoxal, reference compound]
- MR1T-cell stimulation by GLO1-deficient compared to wild-type THP-1 cells ([2]; clone DGB129, Methylglyoxal (FIG. 9I)): significantly increased
- MR1T-cell stimulation with GLO1-overexpressing THP-1 cells ([2]; clone DGB129, Methylglyoxal (FIG. 9J)): failed to induce

SMILES: CN(C)c1ncnc2c1ncn2[C@@H]1O[C@H](CO)[C@@H](O)[C@H]1O [N6,N6-dimethyladenosine]
- cell surface MR1 upregulation on APCs (in words) [1]: upregulation

SMILES: Nc1ncnc2nc[nH]c12 [adenine, reference compound]
- activation of MR1T clone DGB129 (IFN-γ) [2]: reacted

SMILES: Nc1ncnc2c1ncn2[C@@H]1O[C@H](CO)[C@@H](O)[C@H]1O [adenosine, reference compound]
- activation of MR1T clone DGB129 (IFN-γ) [2]: reacted

SMILES: Nc1ncnc2c1ncn2[C@H]1C[C@H](O)[C@@H](CO)O1 [deoxyadenosine, reference compound]
- activation of MR1T clone DGB129 (IFN-γ) [2]: reacted
- MR1T reactivity using GLO1-deficient THP-1 cells as APCs ([2]; clone DGB129, deoxyadenosine (FIG. 9K)): increased
- MR1T reactivity using GLO1-overexpressing THP-1 cells ([2]; clone DGB129, deoxyadenosine (FIG. 9L)): decreased

SMILES: Nc1nc2c(ncn2[C@H]2C[C@H](O)[C@@H](CO)O2)c(=O)[nH]1 [deoxyguanosine, reference compound]
- activation of MR1T clone MCA3C3 (IFN-γ) [2]: activated

SMILES: Nc1nc2nc[nH]c2c(=O)[nH]1 [guanine, reference compound]
- activation of MR1T clone MCA3C3 (IFN-γ) [2]: activated

SMILES: Nc1nc2c(ncn2[C@@H]2O[C@H](CO)[C@@H](O)[C@H]2O)c(=O)[nH]1 [guanosine, reference compound]
- activation of MR1T clone MCA3C3 (IFN-γ) [2]: activated

SMILES: OC[C@H]1O[C@@H](n2cnc3c(O)ncnc32)[C@H](O)[C@@H]1O [inosine, reference compound]
- activation of MR1T clone DGB129 (IFN-γ) [2]: reacted

SMILES: O=c1[nH]c(=O)c2ncn([C@@H]3O[C@H](CO)[C@@H](O)[C@H]3O)c2[nH]1 [xanthosine, reference compound]
- activation of MR1T clone MCA3C3 (IFN-γ) [2]: activated
